Target: Phosphatidylinositol 3-kinase regulatory subunit alpha/4,5-bisphosphate 3-kinase catalytic subunit alpha isoform (Homo sapiens, UniProt P42336)
Assay: PI3K Inhibition Assay
Protocol: Inhibition of PI3K enzyme activity is measured in a microtiter plate-based fluorescence polarization (FP) assay.

Sequence of Phosphatidylinositol 3-kinase regulatory subunit alpha/4,5-bisphosphate 3-kinase catalytic subunit alpha isoform (P27986 whole entry, canonical isoform): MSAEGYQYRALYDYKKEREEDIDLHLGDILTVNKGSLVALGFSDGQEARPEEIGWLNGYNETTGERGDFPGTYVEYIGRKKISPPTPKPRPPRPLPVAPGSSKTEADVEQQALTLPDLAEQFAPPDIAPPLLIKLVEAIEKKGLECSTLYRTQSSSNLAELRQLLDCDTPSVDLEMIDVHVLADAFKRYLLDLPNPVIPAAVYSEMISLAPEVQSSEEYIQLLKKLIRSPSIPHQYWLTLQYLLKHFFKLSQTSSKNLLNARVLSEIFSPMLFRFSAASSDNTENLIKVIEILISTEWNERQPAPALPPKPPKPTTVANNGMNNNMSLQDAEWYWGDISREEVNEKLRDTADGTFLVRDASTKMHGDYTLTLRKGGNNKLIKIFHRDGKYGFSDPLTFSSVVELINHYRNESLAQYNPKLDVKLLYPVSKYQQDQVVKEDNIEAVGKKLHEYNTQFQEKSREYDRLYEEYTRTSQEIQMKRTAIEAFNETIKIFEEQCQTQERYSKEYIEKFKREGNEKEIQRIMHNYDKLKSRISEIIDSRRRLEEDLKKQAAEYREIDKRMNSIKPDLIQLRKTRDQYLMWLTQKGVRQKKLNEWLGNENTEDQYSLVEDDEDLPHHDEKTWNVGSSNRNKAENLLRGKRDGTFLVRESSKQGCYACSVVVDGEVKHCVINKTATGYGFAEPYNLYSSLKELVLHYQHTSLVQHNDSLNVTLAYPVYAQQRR
Sequence of Phosphatidylinositol 3-kinase regulatory subunit alpha/4,5-bisphosphate 3-kinase catalytic subunit alpha isoform (P42336 whole entry, canonical isoform): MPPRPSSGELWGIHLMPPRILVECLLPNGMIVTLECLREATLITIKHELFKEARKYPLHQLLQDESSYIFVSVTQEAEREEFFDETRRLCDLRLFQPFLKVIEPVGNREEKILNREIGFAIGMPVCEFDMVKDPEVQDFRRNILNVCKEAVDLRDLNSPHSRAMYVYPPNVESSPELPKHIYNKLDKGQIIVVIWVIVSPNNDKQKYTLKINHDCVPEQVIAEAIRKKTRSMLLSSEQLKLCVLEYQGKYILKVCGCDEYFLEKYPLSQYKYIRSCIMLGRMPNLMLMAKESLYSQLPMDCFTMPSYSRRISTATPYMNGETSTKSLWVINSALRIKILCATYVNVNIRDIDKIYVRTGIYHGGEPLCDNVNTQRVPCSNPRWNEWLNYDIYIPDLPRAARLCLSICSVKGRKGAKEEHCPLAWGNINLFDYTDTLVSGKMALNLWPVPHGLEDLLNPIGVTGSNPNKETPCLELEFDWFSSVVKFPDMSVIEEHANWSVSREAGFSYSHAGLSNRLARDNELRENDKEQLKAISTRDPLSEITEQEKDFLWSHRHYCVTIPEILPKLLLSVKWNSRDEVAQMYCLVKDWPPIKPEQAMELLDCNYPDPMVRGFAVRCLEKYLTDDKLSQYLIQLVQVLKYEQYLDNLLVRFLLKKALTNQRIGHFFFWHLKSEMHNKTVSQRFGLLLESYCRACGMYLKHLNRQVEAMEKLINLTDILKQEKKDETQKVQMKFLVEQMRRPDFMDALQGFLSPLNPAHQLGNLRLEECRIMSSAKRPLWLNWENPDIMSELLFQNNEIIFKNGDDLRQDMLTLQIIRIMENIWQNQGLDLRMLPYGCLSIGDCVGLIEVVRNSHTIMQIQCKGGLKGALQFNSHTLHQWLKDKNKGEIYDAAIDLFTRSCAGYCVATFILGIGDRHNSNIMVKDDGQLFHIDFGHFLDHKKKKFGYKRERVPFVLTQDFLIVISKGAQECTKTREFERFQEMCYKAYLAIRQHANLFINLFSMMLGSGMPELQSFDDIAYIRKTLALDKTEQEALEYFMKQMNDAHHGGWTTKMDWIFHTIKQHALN

| SMILES | IC50 |
| --- | --- |
| CCN(C=C1C(=O)O[C@H](COC)[C@]2(C)C3=C(C(=O)C(=O)C12)C1CC[C@H](O)[C@@]1(C)C[C@H]3OC(C)=O)CCCN(C)C (stereo partly drawn) [(2R,3S,6E,14S,15S,17R)-6-({[3-(dimethylamino)propyl](ethyl)amino}methylidene)-8,14-dihydroxy-3-(methoxymethyl)-2,15-dimethyl-5,9-dioxo-4-oxatetracyclo[8.7.0.0^{2,7}.0^{11,15}]heptadeca-1(10),7-dien-17-yl acetate] | 12 nM |
| COC[C@H]1OC(=O)C(=CN(CCCN(C)C)CCCN(C)C)C2C(=O)C(=O)C3=C([C@H](OC(C)=O)C[C@@]4(C)C3CC[C@@H]4O)[C@]21C (stereo partly drawn) [(2R,3S,6E,14S,15S,17R)-6-({bis[3-(dimethylamino)propyl]amino}methylidene)-8,14-dihydroxy-3-(methoxymethyl)-2,15-dimethyl-5,9-dioxo-4-oxatetracyclo[8.7.0.0^{2,7}.0^{11,15}]heptadeca-1(10),7-dien-17-yl acetate] | 22 nM |
| COC[C@H]1OC(=O)C(=CN2CCN(Cc3ccccc3)CC2)C2C(=O)C(=O)C3=C([C@H](OC(C)=O)C[C@@]4(C)C3CC[C@@H]4O)[C@]21C (stereo partly drawn) [(2R,3S,6E,14S,15S,17R)-6-[(4-benzylpiperazin-1-yl)methylidene]-8,14-dihydroxy-3-(methoxymethyl)-2,15-dimethyl-5,9-dioxo-4-oxatetracyclo[8.7.0.0^{2,7}.0^{11,15}]heptadeca-1(10),7-dien-17-yl acetate] | 87 nM |
| COC[C@H]1OC(=O)C(=CN2CCN(C3CCCCC3)CC2)C2C(=O)C(=O)C3=C([C@H](OC(C)=O)C[C@@]4(C)C3CC[C@@H]4O)[C@]21C (stereo partly drawn) [(2R,3S,6E,14S,15S,17R)-6-[(4-cyclohexylpiperazin-1-yl)methylidene]-8,14-dihydroxy-3-(methoxymethyl)-2,15-dimethyl-5,9-dioxo-4-oxatetracyclo[8.7.0.0^{2,7}.0^{11,15}]heptadeca-1(10),7-dien-17-yl acetate] | 43 nM |
| COC[C@H]1OC(=O)C(=CN(CCC#N)Cc2ccccc2)C2C(=O)C(=O)C3=C([C@H](OC(C)=O)C[C@@]4(C)C3CC[C@@H]4O)[C@]21C (stereo partly drawn) [(2R,3S,6E,14S,15S,17R)-6-{[benzyl(2-cyanoethyl)amino]methylidene}-8,14-dihydroxy-3-(methoxymethyl)-2,15-dimethyl-5,9-dioxo-4-oxatetracyclo[8.7.0.0^{2,7}.0^{11,15}]heptadeca-1(10),7-dien-17-yl acetate] | 444 nM |
| COC[C@H]1OC(=O)C(=CN(CCO)CCO)C2C(=O)C(=O)C3=C([C@H](OC(C)=O)C[C@@]4(C)C3CC[C@@H]4O)[C@]21C (stereo partly drawn) [(2R,3S,6E,14S,15S,17R)-6-{[bis(2-hydroxyethyl)amino]methylidene}-8,14-dihydroxy-3-(methoxymethyl)-2,15-dimethyl-5,9-dioxo-4-oxatetracyclo[8.7.0.0^{2,7}.0^{11,15}]heptadeca-1(10),7-dien-17-yl acetate] | 918 nM |
| COC[C@H]1OC(=O)C(=CN2CCCCC2)C2C(=O)C(=O)C3=C([C@H](OC(C)=O)C[C@@]4(C)C3CC[C@@H]4O)[C@]21C (stereo partly drawn) [(2R,3S,6E,14S,15S,17R)-8,14-dihydroxy-3-(methoxymethyl)-2,15-dimethyl-5,9-dioxo-6-(piperidin-1-ylmethylidene)-4-oxatetracyclo[8.7.0.0^{2,7}.0^{11,15}]heptadeca-1(10),7-dien-17-yl acetate] | 104 nM |
| COC[C@H]1OC(=O)C(=CN2CCC(=O)CC2)C2C(=O)C(=O)C3=C([C@H](OC(C)=O)C[C@@]4(C)C3CC[C@@H]4O)[C@]21C (stereo partly drawn) [(2R,3S,6E,14S,15S,17R)-8,14-dihydroxy-3-(methoxymethyl)-2,15-dimethyl-5,9-dioxo-6-[(4-oxopiperidin-1-yl)methylidene]-4-oxatetracyclo[8.7.0.0^{2,7}.0^{11,15}]heptadeca-1(10),7-dien-17-yl acetate] | 60 nM |
| COC[C@H]1OC(=O)C(=CN2CCN(c3ccccc3)CC2)C2C(=O)C(=O)C3=C([C@H](OC(C)=O)C[C@@]4(C)C3CC[C@@H]4O)[C@]21C (stereo partly drawn) [(2R,3S,6E,14S,15S,17R)-8,14-dihydroxy-3-(methoxymethyl)-2,15-dimethyl-5,9-dioxo-6-[(4-phenylpiperazin-1-yl)methylidene]-4-oxatetracyclo[8.7.0.0^{2,7}.0^{11,15}]heptadeca-1(10),7-dien-17-yl acetate] | 56 nM |
| COC[C@H]1OC(=O)C(=CN2CCC(c3ccccc3)CC2)C2C(=O)C(=O)C3=C([C@H](OC(C)=O)C[C@@]4(C)C3CC[C@@H]4O)[C@]21C (stereo partly drawn) [(2R,3S,6E,14S,15S,17R)-8,14-dihydroxy-3-(methoxymethyl)-2,15-dimethyl-5,9-dioxo-6-[(4-phenylpiperidin-1-yl)methylidene]-4-oxatetracyclo[8.7.0.0^{2,7}.0^{11,15}]heptadeca-1(10),7-dien-17-yl acetate] | 172 nM |
| COC[C@H]1OC(=O)C(=CN2CCC(N3CCCCC3)CC2)C2C(=O)C(=O)C3=C([C@H](OC(C)=O)C[C@@]4(C)C3CC[C@@H]4O)[C@]21C (stereo partly drawn) [(2R,3S,6E,14S,15S,17R)-8,14-dihydroxy-3-(methoxymethyl)-2,15-dimethyl-5,9-dioxo-6-{[4-(piperidin-1-yl)piperidin-1-yl]methylidene}-4-oxatetracyclo[8.7.0.0^{2,7}.0^{11,15}]heptadeca-1(10),7-dien-17-yl acetate] | 63 nM |
| COC[C@H]1OC(=O)C(=CN2CCN(C)CC2)C2C(=O)C(=O)C3=C([C@H](OC(C)=O)C[C@@]4(C)C3CC[C@@H]4O)[C@]21C (stereo partly drawn) [(2R,3S,6E,14S,15S,17R)-8,14-dihydroxy-3-(methoxymethyl)-2,15-dimethyl-6-[(4-methylpiperazin-1-yl)methylidene]-5,9-dioxo-4-oxatetracyclo[8.7.0.0^{2,7}.0^{11,15}]heptadeca-1(10),7-dien-17-yl acetate] | 90 nM |
| COC[C@H]1OC(=O)C(=CN2CCN(C3CCN(C)CC3)CC2)C2C(=O)C(=O)C3=C([C@H](OC(C)=O)C[C@@]4(C)C3CC[C@@H]4O)[C@]21C (stereo partly drawn) [(2R,3S,6E,14S,15S,17R)-8,14-dihydroxy-3-(methoxymethyl)-2,15-dimethyl-6-{[4-(1-methylpiperidin-4-yl)piperazin-1-yl]methylidene}-5,9-dioxo-4-oxatetracyclo[8.7.0.0^{2,7}.0^{11,15}]heptadeca-1(10),7-dien-17-yl acetate] | 91 nM |
| COC[C@H]1OC(=O)C(=CN(C)N2CCC(C)C2)C2C(=O)C(=O)C3=C([C@H](OC(C)=O)C[C@@]4(C)C3CC[C@@H]4O)[C@]21C (stereo partly drawn) [(2R,3S,6E,14S,15S,17R)-8,14-dihydroxy-3-(methoxymethyl)-2,15-dimethyl-6-{[methyl(3-methylpyrrolidin-1-yl)amino]methylidene}-5,9-dioxo-4-oxatetracyclo[8.7.0.0^{2,7}.0^{11,15}]heptadeca-1(10),7-dien-17-yl acetate] | 127 nM |

More lines, now with the values ahead:

| IC50 | SMILES |
| --- | --- |
| 199 nM | COC[C@H]1OC(=O)C(=CN(C)CC(O)CO)C2C(=O)C(=O)C3=C([C@H](OC(C)=O)C[C@@]4(C)C3CC[C@@H]4O)[C@]21C (stereo partly drawn) [(2R,3S,6E,14S,15S,17R)-6-{[(2,3-dihydroxypropyl)(methyl)amino]methylidene}-8,14-dihydroxy-3-(methoxymethyl)-2,15-dimethyl-5,9-dioxo-4-oxatetracyclo[8.7.0.0^{2,7}.0^{11,15}]heptadeca-1(10),7-dien-17-yl acetate] |
| 37 nM | COC[C@H]1OC(=O)C(=CN2CCOCC2)C2C(=O)C(=O)C3=C([C@H](OC(C)=O)C[C@@]4(C)C3CC[C@@H]4O)[C@]21C (stereo partly drawn) [(2R,3S,6E,14S,15S,17R)-8,14-dihydroxy-3-(methoxymethyl)-2,15-dimethyl-6-(morpholin-4-ylmethylidene)-5,9-dioxo-4-oxatetracyclo[8.7.0.0^{2,7}.0^{11,15}]heptadeca-1(10),7-dien-17-yl acetate] |
| 78 nM | COC[C@H]1OC(=O)C(=CN2CCN(CCN3CCOCC3)CC2)C2C(=O)C(=O)C3=C([C@H](OC(C)=O)C[C@@]4(C)C3CC[C@@H]4O)[C@]21C (stereo partly drawn) [(2R,3S,6E,14S,15S,17R)-8,14-dihydroxy-3-(methoxymethyl)-2,15-dimethyl-6-({4-[2-(morpholin-4-yl)ethyl]piperazin-1-yl}methylidene)-5,9-dioxo-4-oxatetracyclo[8.7.0.0^{2,7}.0^{11,15}]heptadeca-1(10),7-dien-17-yl acetate] |
| 45 nM | COC[C@H]1OC(=O)C(=CN2CCN(CCCN3CCOCC3)CC2)C2C(=O)C(=O)C3=C([C@H](OC(C)=O)C[C@@]4(C)C3CC[C@@H]4O)[C@]21C (stereo partly drawn) [(2R,3S,6E,14S,15S,17R)-8,14-dihydroxy-3-(methoxymethyl)-2,15-dimethyl-6-({4-[3-(morpholin-4-yl)propyl]piperazin-1-yl}methylidene)-5,9-dioxo-4-oxatetracyclo[8.7.0.0^{2,7}.0^{11,15}]heptadeca-1(10),7-dien-17-yl acetate] |
| 10 nM | COC[C@H]1OC(=O)C(=CN(C)CCCN2CCN(C)CC2)C2C(=O)C(=O)C3=C([C@H](OC(C)=O)C[C@@]4(C)C3CC[C@@H]4O)[C@]21C (stereo partly drawn) [(2R,3S,6E,14S,15S,17R)-8,14-dihydroxy-3-(methoxymethyl)-2,15-dimethyl-6-({methyl[3-(4-methylpiperazin-1-yl)propyl]amino}methylidene)-5,9-dioxo-4-oxatetracyclo[8.7.0.0^{2,7}.0^{11,15}]heptadeca-1(10),7-dien-17-yl acetate] |
| 24 nM | COC[C@H]1OC(=O)C(=CN(C)CCCN2CCOCC2)C2C(=O)C(=O)C3=C([C@H](OC(C)=O)C[C@@]4(C)C3CC[C@@H]4O)[C@]21C (stereo partly drawn) [(2R,3S,6E,14S,15S,17R)-8,14-dihydroxy-3-(methoxymethyl)-2,15-dimethyl-6-({methyl[3-(morpholin-4-yl)propyl]amino}methylidene)-5,9-dioxo-4-oxatetracyclo[8.7.0.0^{2,7}.0^{11,15}]heptadeca-1(10),7-dien-17-yl acetate] |
| 15 nM | COC[C@H]1OC(=O)C(=CN(C)CCCN2CCN(c3ccc(OC)cc3)CC2)C2C(=O)C(=O)C3=C([C@H](OC(C)=O)C[C@@]4(C)C3CC[C@@H]4O)[C@]21C (stereo partly drawn) [(2R,3S,6E,14S,15S,17R)-8,14-dihydroxy-3-(methoxymethyl)-6-[({3-[4-(4-methoxyphenyl)piperazin-1-yl]propyl}(methyl)amino)methylidene]-2,15-dimethyl-5,9-dioxo-4-oxatetracyclo[8.7.0.0^{2,7}.0^{11,15}]heptadeca-1(10),7-dien-17-yl acetate] |
